Measurements reported in publication PMC6302136, “Quantitative Chemotherapeutic Profiling of Gynecologic Cancer Cell Lines Using Approved Drugs and Bioactive Compounds^” (Translational Oncology, 2018).
Read-outs that look alike come from different tables or passages of the source.

Key:
[1] = test system: placental cancer cell lines (JAR, JEG-3); assay: qHTS ATPlite cell viability, placental cancer cell lines; type: cell-based, human; conditions: for Average SI: vs HEK 293T, >100 = inactive in HEK293T
Description: (§1) The ATPlite luminescence assay system assay kit was used to determine cell viability. The reagent was reconstituted and prepared as described by the manufacturer. To measure the cell death caused by the compounds, cells were cultured in 4 μl of media for 16 hours at 37°C with 5% CO2 in assay plates, followed by the addition of DMSO or 16 SOC chemotherapeutic compounds dissolved in DMSO. SOC compounds were dosed at 11 concentrations (1:3 dilution) in quadruplicate from 57.5 μM to 0.977 nM using the automated Wako 1536 Pin Tool workstation and incubated at 37°C with 5% CO2 for 24, 48, or 72 hours. Four microliters of ATPlite, the ATP monitoring reagent, was then added to each well of the assay plates using the Multidrop Combi reagent dispenser followed by incubation for 15 minutes at room temperature. The resulting luminescence was measured using the ViewLux plate reader. Data were normalized for each drug using the largest luminescence value as 100% full cell viability (0% cell killing) and to the smallest luminescence value 0% viability (100% cell killing).
The ATPlite assay to determine the IC50 values for each compound was conducted as described above. Plates were processed on the fully integrated Kalypsys robotic system.

PA-1 cells = assay: ATP content (ATPlite) cell viability assay in PA-1 cells; type: cell-based, human; conditions: for IC50: Homo sapiens, PA-1, confirmation screen, 48 h, read-out: Avg IC50; for Avg SI: PA-1 selective compounds, vs HEK 293T, >100 = inactive in HEK293T
HEK 293T cells [2] = assay: cells; conditions: for IC50: read-out: IC50 (HEK 293T toxicity)
Description: as §1
(§2) A qHTS [79], in which each compound was assayed in five concentrations (0.092, 0.46, 2.3, 11.5, and 57.5 μM), was performed for the primary compound screen using the NPC [80] and NPACT drug libraries at NCATS. The OBGYN cancer and HEK 293T control cells were seeded into 1536-well assay plates at 1000 cells per 4 μl/well and incubated at 37°C in 5% CO2 for 48 hours. The ATPlite assay to determine the IC50 values for each compound was conducted as described above. Plates were processed on the fully integrated Kalypsys robotic system.

HEK 293T cells [3] = test system: HEK 293T cells; set-up: method as in PMID 31498718; conditions: CellTiterGlo, cited from earlier work; for IC50: independent screen
[4] = test system: 11 gynecologic cancer cell lines; assay: qHTS ATPlite cell viability, gynecologic cancer cell lines (ovarian, cervical, placental); type: cell-based, human; conditions: for Average SI: selectivity index vs HEK 293T; for Cell Lines Active: number of the 11 cancer cell lines in which the compound is active (<1 μM potency, >70% efficacy)
Description: as §1, §2

[5] = Homo sapiens, JEG-3, Placental cancer cell line killer, mean of cell lines fulfilling criteria, 48 h, read-out: Average IC50
[6] = Placental cancer cell line killer
[7] = HEK 293T, this screen (ATPlite), 48 h
[8] = Homo sapiens, toxic compounds, average over all cancer cell lines, 48 h, mean ± S.D., read-out: Average IC50
[9] = toxic compounds, average over all cancer cell lines, mean ± S.D.
[10] = Homo sapiens, average IC90 over the cell lines in which the compound is active, read-out: IC90

## N=C(N)c1ccc(OCCCCCOc2ccc(C(=N)N)cc2)cc1 [Nebupent]
[1]; [5]
  IC50: 4.9 ± 1.02 µM
[1]; [6]
  Average SI: >100

## COc1c(C)c2c(c(O)c1C/C=C(\C)CCC(=O)OCCN1CCOCC1)C(=O)OC2 [Mycophenolate mofetil]
PA-1 cells
  IC50: 0.631 µM
  Avg SI: >100
PA-1 cells; listed as mycophenolate mofetil
  Avg SI: > 100

## CCN(CC)Cc1ccc2cc(COC(=O)Nc3ccc(C(=O)NO)cc3)ccc2c1 [Givinostat]
HEK 293T cells [2]; [7]
  Efficacy (%) (HEK 293T toxicity): 65.6%
HEK 293T cells [2]; Homo sapiens, HEK-293T, 48 h
  IC50: 2.91 µM
HEK 293T cells [2]; human, 48 h
  toxicity to HEK 293T cells: equally toxic to HEK 293T cells
HEK 293T cells [3]
  Efficacy (%) (independent screen, HEK 293T): 112%
  Independent Screen (confirmation of HEK 293T toxicity): Confirmed toxic
  IC50: 1.11 µM
[4]; [8]
  IC50: 3.5 ± 3.88 µM
[4]; [9]
  Average SI: 1.74 ± 1.25

## Cc1ccc(C(=O)Nc2ccc(CN3CCN(C)CC3)c(C(F)(F)F)c2)cc1C#Cc1cnc2cccnn12 [Ponantinib]
HEK 293T cells [2]; [7]
  Efficacy (%) (HEK 293T toxicity): 92%
HEK 293T cells [2]; Homo sapiens, HEK-293T, 48 h
  IC50: 19.9 µM
HEK 293T cells [3]
  Efficacy (%) (independent screen, HEK 293T): 92.6%
  Independent Screen (confirmation of HEK 293T toxicity): Confirmed toxic
  IC50: 0.811 µM
[4]; Homo sapiens, 48 h, read-out: Average IC50 (μM)
  IC50: 15.9 ± 9.07 µM
[4]; [9]
  Average SI: 3.56 ± 4.85

## Cc1csc(NC(=O)CSc2nc3c(c(C(F)(F)F)c2C#N)CCC3)n1 [Irestatin 9389]
HEK 293T cells [2]; [7]
  Efficacy (%) (HEK 293T toxicity): 102%
  IC50: 1.34 µM
[4]; toxic compounds, average over all cancer cell lines, 48 h, mean ± S.D., read-out: Average IC50
  IC50: 3.52 ± 3.12 µM
[4]; [9]
  Average SI: 0.51 ± 0.20

## COc1cccc2c1C(=O)c1c(O)c3c(c(O)c1C2=O)C[C@@](O)(C(=O)CO)C[C@@H]3O[C@H]1C[C@H](N)[C@H](O[C@@H]2CCCCO2)[C@H](C)O1 [Pirarubicin]
PA-1 cells
  IC50: 0.839 µM
  Avg SI: 14.6

## CC[C@@H]1C(=O)N(C)c2cnc(Nc3ccc(C(=O)NC4CCN(C)CC4)cc3OC)nc2N1C1CCCC1 [BI-2536]
[4]; Homo sapiens
  IC90: 0.0397 µM
[4]
  Cell Lines Active: 4

## CN(C)C1CCN(C(=O)c2ccc(NC(=O)Nc3ccc(-c4nc(N5CCOCC5)nc(N5CCOCC5)n4)cc3)cc2)CC1 [Gedatolisib]
[4]; Homo sapiens
  IC90: 6.8 µM
[4]
  Cell Lines Active: 4

## i-Bet-151
[1]; Placental cancer cell line killer, mean of cell lines fulfilling criteria, 48 h, read-out: Average IC50
  IC50: 19.3 ± 9.13 µM
[1]; [6]
  Average SI: >100

## CC(C)C[C@H](NC(=O)[C@@H](NC(=O)c1cccc(-c2ccccc2)n1)[C@@H](C)O)B(O)O [CEP-18770 (Delanzomib)]
[4]; [10]
  IC90: 0.391 µM
[4]
  Cell Lines Active: 6

## CCc1c2c(nc3ccc(O)cc13)-c1cc3c(c(=O)n1C2)COC(=O)[C@]3(O)CC [SN-38]
[4]; average IC90 over the cell lines in which the compound is active, read-out: IC90
  IC90: 0.592 µM
[4]
  Cell Lines Active: 4

## CC[C@@]1(O)C(=O)OCc2c1cc1n(c2=O)Cc2c-1nc1ccccc1c2/C=N/OC(C)(C)C [Gimatecan]
PA-1 cells
  IC50: 0.0337 µM
  Avg SI: 12.5
[4]; [10]
  IC90: 0.275 ± 0.028 µM
[4]
  Cell Lines Active: 4

## O=C(Nc1cccnc1)N1CCC(Cc2cccc(Oc3ccc(C(F)(F)F)cn3)c2)CC1 [PF-3845]
[1]; [5]
  IC50: 9.31 ± 1.15 µM
[1]; [6]
  Average SI: >100

## CC(C)CC(=O)Nc1[nH]nc2c1CN(C(=O)C1CCN(C)CC1)C2(C)C [PHA-793887]
PA-1 cells
  IC50: 0.194 µM
  Avg SI: 12.3

## O=C(CCCCCCC(=O)Nc1ccccc1)NO [Vorinostat]
HEK 293T cells [2]; [7]
  Efficacy (%) (HEK 293T toxicity): 64.7%
HEK 293T cells [2]; compared with suppression of the 11 gynecologic cancer cell lines
  toxicity to HEK 293T cells: equally toxic to HEK 293T cells
HEK 293T cells [3]
  Efficacy (%) (independent screen, HEK 293T): 80.2%
  Independent Screen (confirmation of HEK 293T toxicity): Confirmed toxic

## C[C@@H](Oc1cc(-n2cnc3ccc(CN4CCN(C)CC4)cc32)sc1C(N)=O)c1ccccc1C(F)(F)F [GSK461364]
[1]; [5]
  IC50: 3.52 ± 0.133 µM
[1]; [6]
  Average SI: 8.81 ± 0.333

## COc1ccc(-c2ccc3ncc4c(c3c2)n(-c2ccc(N3CCNCC3)c(C(F)(F)F)c2)c(=O)n4C)cn1 [NVP-BGT226]
HEK 293T cells [2]; [7]
  Efficacy (%) (HEK 293T toxicity): 106%
HEK 293T cells [2]; Homo sapiens, HEK-293T, 48 h
  IC50: 0.258 µM
HEK 293T cells [3]
  Efficacy (%) (independent screen, HEK 293T): 115%
  Independent Screen (confirmation of HEK 293T toxicity): Confirmed toxic
  IC50: 0.0145 µM
[4]; [8]
  IC50: 5.34 ± 6.56 µM
[4]; [9]
  Average SI: 0.20 ± 0.26

## CN(NC(=O)CC(=O)NN(C)C(=S)c1ccccc1)C(=S)c1ccccc1 [Elesclomol]
[4]; [10]
  IC90: 0.283 µM
[4]; Homo sapiens, average over the cell lines in which the compound was active, read-out: average IC50
  IC50: 0.173 µM
[4]
  Cell Lines Active: six
[4]; listed as Elesclomol (STA-4783)
  Cell Lines Active: 6

## C=C(C)[C@H]1Cc2c(ccc3c2O[C@@H]2COc4cc(OC)c(OC)cc4[C@@H]2C3=O)O1 [Rotenone]
[1]; Homo sapiens, JEG-3, 48 h, read-out: Average IC50 (μM)
  IC50: 0.0418 ± 0.0134 µM
[1]; [6]
  Average SI: 19.5 ± 6.26
